Assay results as given in US4447445A (priority 1983, dated 1984).
Converted amounts (≈) assume the structure as drawn. “And” between values parts separate entries of the source, which are not always exact repeats. Equal values may be shown once. “Also recorded” adds a separate entry of the source.

Key:
[1] = test system: PMA induced inflammation of mouse ears; assay: PMA Mouse Ear Anti-Inflammatory Assay; assay type: in vivo; conditions: for % Inhibition of Edema Alone: Manoalide 0.04 mg/ear, Hydrocortisone 0.009 mg/ear, Indomethacin 0.09 mg/ear
Protocol: (§1) Test compound and phorbol myristate acetate (PMA) or arachidonic acid (ARA) are topically applied simultaneously to the left ears of mice. Three hours 20 minutes (or one hour for ARA) after application, the mouse is sacrificed, left and right ears removed and standard sized bores taken. Edema (inflammation) is measured as the difference in weight between left and right ears [Van Arman, C. G., Clin. Pharmacol. Ther. 16, 900-904 (1974)].

isolated diaphragm = assay: Rat Phrenic Nerve - Hemidiaphragm; conditions: for effects on skeletal muscle: preliminary assays
Protocol: Compound is tested for its ability to inhibit or facilitate the twitch of the isolated diaphragm in response to the electrical stimulation of the phrenic nerve [Bulbring, E., Br. J. Pharmac. Chemother. 1, 38 (1946)].

[2] = test system: eggs (from Lytechinus pictus); assay: Fertilized Sea Urchin Egg Inhibition of Cleavage Assay; assay type: cell-based; conditions: for inhibition of cell division: preliminary assays
Protocol: Test compound is added to a slurry of eggs (from Lytechinus pictus) within five minutes following fertilization and incubated until the completion of first division in control slurry, approximately 90 minutes. Inhibition is measured as the percent of undivided eggs in the slurry at the end of incubation [Hinegardner, R., In The Sea Urchin Embryo, ed. C. Czihar (Springer-Verlag, Berlin, 1974)].

[3] = test system: spontaneous beating isolated guinea pig auricles; assay: Guinea Pig Auricles; conditions: for effects on cardiac muscle: preliminary assays
Protocol: Test compound is administered to the spontaneous beating isolated guinea pig auricles and observed for its ability to alter either the rate or the force of contraction or to antagonize the effects of acetylcholine [modified from J. Physiol. 61, 547 (1926); Heffter's Hanb. Exp. Pharmak. 4, 185 (1937)].

β-bungarotoxin = β-bungarotoxin (Bungarus multicinctus, UniProt P00617)
[4] = target: phospholipase A2 from bee venom (Apis mellifera, UniProt P00630); assay type: biochemical
[5] = test system: ARA induced inflammation of mouse ears; assay: Arachidonic Acid Mouse Ear Assay; conditions: in vivo
Protocol: as §1

[6] = test system: oxazolone induced inflammation of mouse ears; assay: Oxazolone-Induced Sensitization inflammation; assay type: in vivo; conditions: for EAR WEIGHT (MGS): with oxazolone
Protocol: Mice are sensitized by the application of oxazolone to the abdominal area. One week later, test compound and oxazolone are topically applied to the ears of these mice. Six hours after application, the mice are sacrificed, the ears removed and standard sized bores taken and weighed. Edema (inflammation) is measured as the difference in weight between control and treated ears. Without previous sensitization exposure, oxazolone has no inflammatory effect on mouse ears.

mice [7] = assay: Analgesia - Haffner Technique (tail clip); assay type: in vivo, mouse; conditions: high doses
Protocol: Analgesia is measured as the lack of response to a pinch clamp applied to the tail of a mouse 15 to 30 minutes following subcutaneous injection of the test compound [Bianchi, G. and G. Franeschini, Brit. J. Pharmac. 9, 280 (1954)].

isolated rat uterus = assay: Rat Uterus (Prostaglandin Assay); conditions: against PGE2, PGE1 and PGF2
mouse ears = assay: Histology of mouse ears from the anti-inflammatory assay; conditions: in vivo
Excerpt: Mouse ears from the anti-inflammatory assay are fixed in Karnofsky's fixative and osmium tetroxide and then embedded in araldite epoxy resin for sectioning for light and electron microscopy.

[8] = test system: isolated section of small intestine; assay: Guinea Pig Ileum; conditions: initial screening
acetylcholinesterase = target: T1, acetylcholinesterase (Rattus norvegicus, UniProt P37136); assay: Acetylcholinesterase Assay; assay type: biochemical
T1 construct: rat brain extract (source of acetylcholinesterase); from tissue; host or cells: rat brain extract
Protocol: Test compound is incubated with rat brain extract (source of acetylcholinesterase), acetylthiocholine and dithiobis (2-nitrobenzoic acid). Inhibition of acetylcholinesterase activity is measured spectrophotometrically.

[9] = test system: tumors formed on mouse ears; assay: Tumor Promotion (DMBA/PMA mouse ear); assay type: in vivo; conditions: PMA as promoter with initiator DMBA
Excerpt: An initiating agent, 7,12-dimethylbenzanthracene (DMBA), is applied topically to the ears of mice. Beginning one month later, a tumor promoting agent, phorbol myristate acetate (PMA), and the test compound are applied simultaneously to the ears twice per week for four weeks, then once per week for two weeks. Ears are observed for formation of tumors at the times of application and one week following completion of applications.

mice [10] = assay: Acute Toxicity (with analgesia screening); assay type: in vivo, mouse; conditions: initial screening
Protocol: Test compound is injected subcutaneously into mice which are observed for three days for both lethality and any unusual behavior or appearance. This assay may be performed in conjunction with analgesia assays.

[11] = test system: PMA induced inflammation of mouse ears; assay: PMA Mouse Ear Anti-Inflammatory Assay; conditions: in vivo
[12] = test system: electrically driven section of isolated small intestine; assay: Electrically Stimulated Guinea Pig Ileum
[13] = mouse, in vivo, listed as manoalide

β-bungarotoxin, sequence (P00617 whole entry, looked up): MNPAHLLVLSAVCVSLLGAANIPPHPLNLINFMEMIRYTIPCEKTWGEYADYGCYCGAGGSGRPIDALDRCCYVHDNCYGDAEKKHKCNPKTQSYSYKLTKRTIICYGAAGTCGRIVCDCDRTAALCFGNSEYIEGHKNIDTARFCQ
phospholipase A2 from bee venom, sequence (P00630 34-167 limits assumed): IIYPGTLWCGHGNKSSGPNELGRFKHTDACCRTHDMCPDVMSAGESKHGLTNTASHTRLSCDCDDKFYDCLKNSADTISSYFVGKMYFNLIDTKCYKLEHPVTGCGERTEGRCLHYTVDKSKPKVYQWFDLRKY
T1 sequence (P37136 32-614): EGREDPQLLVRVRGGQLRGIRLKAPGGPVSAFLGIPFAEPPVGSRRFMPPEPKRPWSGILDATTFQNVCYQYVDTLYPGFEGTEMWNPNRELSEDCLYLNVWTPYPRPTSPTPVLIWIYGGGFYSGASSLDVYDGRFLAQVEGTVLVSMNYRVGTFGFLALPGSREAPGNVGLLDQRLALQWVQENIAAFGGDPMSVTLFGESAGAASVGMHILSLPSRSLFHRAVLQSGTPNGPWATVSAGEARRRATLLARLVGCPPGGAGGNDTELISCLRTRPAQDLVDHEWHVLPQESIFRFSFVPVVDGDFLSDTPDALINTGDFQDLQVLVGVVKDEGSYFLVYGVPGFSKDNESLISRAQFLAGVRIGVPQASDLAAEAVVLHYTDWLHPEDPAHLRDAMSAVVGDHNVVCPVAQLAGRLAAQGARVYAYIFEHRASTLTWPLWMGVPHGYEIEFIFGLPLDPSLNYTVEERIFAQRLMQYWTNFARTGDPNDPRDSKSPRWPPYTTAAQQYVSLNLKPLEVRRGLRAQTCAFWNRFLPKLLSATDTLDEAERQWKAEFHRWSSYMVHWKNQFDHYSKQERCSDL

With CC(=CCCC(C=O)=CC=CC1=CC(=O)OC1O)CCC1=C(C)CCCC1(C)C (single isomer, unassigned) [dehydro-seco-manoalide] the “PMA Mouse Ear anti-inflammatory activity (remark)” value ([1]; mouse, in vivo) was “anti-inflammatoryactivity”, the “anti-inflammatory potency relative to comparators” value ([1]; mouse, in vivo) was “nearly equivalent in potency to that of manoalide” and the “effects on skeletal muscle” value (isolated diaphragm) was “no significant activity”. The “inhibition of cell division” value [2] was “no significant activity” and the “effects on cardiac muscle” value [3] was “no significant activity”.

With CCN(CC)CCCC(C)Nc1c2ccc(Cl)cc2nc2ccc(OC)cc12 (centres unmarked) [mepacrine] the “Mean TI50 ± S.E.” value (β-bungarotoxin) was 43.50 ± 2.50 and 49.00 ± 4.00 and 46.60 ± 7.54 and 35.66 ± 4.67 and the “effect on enzyme activity (hydrolysis of phosphatidylcholine)” value [4] was “ineffective”.

CC1=C(CC/C(C)=C/CCC(C=O)=CCC(O)C2=CC(=O)OC2O)C(C)(C)CCC1 (centres unmarked) [seco-manoalide] was tested, and the “PMA Mouse Ear anti-inflammatory activity (remark)” value ([1]; mouse, in vivo) was “anti-inflammatoryactivity”, the “anti-inflammatory potency relative to comparators” value ([1]; mouse, in vivo) was “nearly equivalent in potency to that of manoalide” and the “effects on skeletal muscle” value (isolated diaphragm) was “no significant activity”. The “inhibition of cell division” value [2] was “no significant activity” and the “effects on cardiac muscle” value [3] was “no significant activity”.

For C[C@]12CCC(=O)C=C1CC[C@@H]1[C@@H]2[C@@H](O)C[C@@]2(C)[C@H]1CC[C@]2(O)C(=O)CO [Hydrocortisone, hydrocortisone, reference compound], the “% Inhibition of Edema Alone” value [1] was 16.59 ± 7.00%, the “effect on ARA induced ear inflammation” value [5] was “Neither manoalide nor hydrocortisone affected the ARA induced inflammation” and the “EAR WEIGHT (MGS)” value ([6]; dose 50 μg/ear) was 9.7 ± 1.2 MGS. For the same molecule, the “EAR WEIGHT (MGS)” value ([6]; dose 100 μg/ear) was 9.2 ± 0.4 MGS.

With COc1ccc2c(c1)c(CC(=O)O)c(C)n2C(=O)c1ccc(Cl)cc1 [Indomethacin, indomethacin, reference compound] the “% Inhibition of Edema Alone” value [1] was 31.42 ± 12.72%, the “effect on ARA induced ear inflammation” value [5] was “effectively blocked” and the “EAR WEIGHT (MGS)” value ([6]; dose 50 μg/ear) was 16.6 ± 5.7 MGS. For the same molecule, the “EAR WEIGHT (MGS)” value ([6]; dose 100 μg/ear) was 11.1 ± 1.2 MGS.

CC1=C(CC/C(C)=C/CCC2=CCC(C3=CC(=O)OC3O)OC2O)C(C)(C)CCC1 (centres unmarked) [Manoalide] was tested, and the “Analgesia (Haffner Tail-Clip), mechanically induced pain” value (mice [7]) was “Inactive”, the “Analgesia (Haffner Tail-Clip), mechanically induced pain” value (mice [7]; listed as manoalide) was “did not significantly affect mechanically induced pain” and the “% Inhibition of Edema Alone” value [1] was 28.24 ± 6.58%. For the same molecule, the “PMA - Mouse Ear Competition for binding” value ([1]; mouse, in vivo) was “Does not compete”, the “PMA - Mouse Ear Potentiation (with Hydrocortisone and Indomethacin)” value ([1]; mouse, in vivo) was “Active” and the “PMA Mouse Ear anti-inflammatory activity (remark)” value ([1]; mouse, in vivo) was “Active; also recorded: blocks this inflammation”. The “anti-inflammatory potency relative to comparators” value ([1]; mouse, in vivo) was “greater than that of indomethacin; also recorded: less potent than hydrocortisone”, the “anti-inflammatory potency relative to comparators” value [1, 13] was “more potent than indomethacin and less potent than hydrocortisone” and the “ED50 (PMA induced ear inflammation)” value ([1]; topical, will vary with PMA dose) was ~40 μg/ear. The “reduction of inflammation due to PMA induction” value ([1]; total dose of 10 μg applied to the ear) was “marked reduction of inflammation”, the “effect on ARA induced ear inflammation” value [5] was “Inactive” and the “effect on ARA induced ear inflammation” value ([5]; listed as manoalide) was “Neither manoalide nor hydrocortisone affected the ARA induced inflammation”. The “Rat Uterus (Prostaglandin Assay) activity” value (isolated rat uterus) was “Inactive”, the “Rat Uterus (Prostaglandin Assay) activity” value (isolated rat uterus; listed as manoalide) was “inactive against these agents” and the “contracture in the rat hemidiaphragm preparation” value (isolated diaphragm) was “modest contracture”. For the same molecule, the “effect on the directly stimulated twitch” value (isolated diaphragm) was “mildly inhibiting the directly stimulated twitch”, the “Rat Phrenic Nerve - Hemidiaphragm (remark)” value (isolated diaphragm; initial screening) was “Active” and the “inactivation of β-Bungarotoxin neurotoxic action” value (β-bungarotoxin) was “inactivated the irreversible neurotoxic action of β-bungarotoxin; also recorded: prevents the paralytic action of β-bungarotoxin”. For the same molecule, the “Histology of PMA treated ears” value (mouse ears) was “Decreased lymphocyte”, the “Histology of PMA treated ears” value (mouse ears; listed as manoalide) was “qualitatively produced similar effects to both hydrocortisone and indomethacin” and the IC50 ([2]; Lytechinus pictus, 1.5 h, read-out: Fertilized Sea Urchin Egg ED50) was 1 µg/mL (≈ 2.4 µM). The “Fertilized Sea Urchin Egg Inhibition of Cleavage (remark)” value ([2]; initial screening) was “Active”, the “Acetylcholine Antagonism in Guinea Pig Auricles” value [3] was “Inactive” and the “Guinea Pig Auricles (remark)” value ([3]; initial screening) was “Active”. For the same molecule, the “Guinea Pig Ileum (remark)” value [8] was “Active”, the “Acetylcholinesterase (remark)” value (acetylcholinesterase) was “Inactive” and the “incidence of tumors formed on mouse ears” value [9] was “significantly decreases the incidence of tumors”. For the same molecule, the “EAR WEIGHT (MGS)” value ([6]; dose 50 μg/ear) was 17.5 ± 3.7 MGS, the “EAR WEIGHT (MGS)” value ([6]; dose 100 μg/ear) was 13.1 ± 1.4 MGS and the “effect on oxazolone induced inflammation” value [6, 13] was “blocks the oxazolone induced inflammation”. For the same molecule, the “Inhibition of purified phosplolipase A2 (remark)” value [4] was “Active”, the “effect on enzyme activity (hydrolysis of phosphatidylcholine)” value [4] was “concentration dependent decrease in enzyme activity; also recorded: potent inhibitor of the hydrolysis of phosphatidylcholine” and the “type of inhibition of phospholipase A2” value [4] was “non-competitive inhibitor”. For the same molecule, the “Mouse Toxicity and Analgesia (remark)” value (mice [10]) was “Active”, the “PMA - Mouse Ear Time Course of Action: time of optimum activity relative to PMA application” value [11] was < 5 min and the “PMA - Mouse Ear Time Course of Action: time of optimum activity relative to PMA application” value ([11]; listed as manoalide) was “five”. For the same molecule, the “Electrically Stimulated Guinea Pig Ileum (remark)” value [12] was “Inactive”, the “antagonism of the morphine block” value [12] was “nor did it antagonize the morphine block” and the “block of electrically induced contractions” value [12] was “neither blocked electrically induced contractions”.
